Measured values from the supplement of paper PMC10883282.
± gives the standard deviation of the averaged measurements.

System: SW684
Assay: relative viability vs DMSO control (72 h) (fraction); higher = more viable cells
Method in brief: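 Plates held 72 h at 37 °C and 5% CO2 contained sarcoma cell lines seeded in 384-well format to reach 80–90% confluence, plus 2.5 µl of serially diluted compound added after 24 h. Source plate concentrations ran from 10 mM to 0.0002 mM, with 0.1% DMSO as vehicle and a 5 µM positive control. Percent growth from ATPLite readings, averaged over up to triplicate wells, gave relative viability. Values were rescaled with 1 as full and 0 as none.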

Row | SMILES | relative viability (0.00017 µM) | relative viability (0.00051 µM) | relative viability (0.00152 µM) | relative viability (0.00457 µM) | relative viability (0.01372 µM) | relative viability (0.04115 µM) | relative viability (0.1235 µM) | relative viability (0.3704 µM) | relative viability (1.111 µM) | relative viability (3.333 µM) | relative viability (10 µM)
1 | CCN1CCN(Cc2ccc(Nc3ncc(F)c(-c4cc(F)c5nc(C)n(C(C)C)c5c4)n3)nc2)CC1 [Abemaciclib] | 1.13 ± 0.036 | 1.16 ± 0.06 | 1.13 ± 0.048 | 1.12 ± 0.035 | 1.1 ± 0.051 | 1.11 ± 0.051 | 1.04 ± 0.037 | 0.894 ± 0.059 | 0.781 ± 0.028 | 0.832 ± 0.027 | 0.825 ± 0.035
2 | CC(C)NC(=O)C1CCC(n2c(NC(=O)c3ccc(F)cc3)nc3ccc(CN4CCC(C(C)(C)O)CC4)cc32)CC1 (stereo not drawn) [Belizatinib] | 1.169 ± 0.011 | 1.17 ± 0.071 | 1.19 ± 0.024 | 1.21 ± 0.098 | 1.21 ± 0.11 | 1.17 ± 0.056 | 1.16 ± 0.012 | 1.18 ± 0.03 | 1.09 ± 0.048 | 0.798 ± 0.034 | 0.381 ± 0.056
3 | CC[C@H](Nc1ncnc2[nH]cnc12)c1nc2cccc(F)c2c(=O)n1-c1ccccc1 [Idelalisib] | 1.18 ± 0.064 | 1.22 ± 0.025 | 1.18 ± 0.07 | 1.23 ± 0.045 | 1.02 ± 0.08 | 0.946 ± 0.023 | 0.875 ± 0.049 | 0.772 ± 0.049 | 0.658 ± 0.053 | 0.6 ± 0.014 | 0.513 ± 0.017
4 | CC(C)(C)c1cc(NC(=O)Nc2ccc(-c3cn4c(n3)sc3cc(OCCN5CCOCC5)ccc34)cc2)no1 [Quizartinib] | 1.11 ± 0.14 | 1.209 ± 0.012 | 1.21 ± 0.095 | 1.23 ± 0.019 | 1.2 ± 0.052 | 1.14 ± 0.012 | 1.21 ± 0.03 | 1.23 ± 0.061 | 1.14 ± 0.078 | 1.03 ± 0.038 | 0.734 ± 0.077
5 | Cc1cnc(Nc2ccc(OCCN3CCCC3)cc2)nc1Nc1cccc(S(=O)(=O)NC(C)(C)C)c1 [Fedratinib] | 1.12 ± 0.04 | 1.16 ± 0.04 | 1.17 ± 0.081 | 1.16 ± 0.021 | 1.15 ± 0.047 | 1.13 ± 0.038 | 1.1 ± 0.029 | 1 ± 0.023 | 0.666 ± 0.04 | 0.399 ± 0.018 | 0.0027
6 | CC1(C)CNc2cc(NC(=O)c3cccnc3NCc3ccncc3)ccc21 [Motesanib] | 1.04 ± 0.033 | 0.999 ± 0.073 | 0.999 ± 0.065 | 1.01 ± 0.084 | 0.978 ± 0.016 | 0.9719 ± 0.0041 | 0.99 ± 0.079 | 0.94 ± 0.016 | 0.98 ± 0.064 | 1.02 ± 0.043 | 0.859 ± 0.039
7 | Nc1cc(C(F)(F)F)c(-c2cc(N3CCOCC3)nc(N3CCOCC3)n2)cn1 [Buparlisib] | 1.12 ± 0.044 | 1.14 ± 0.075 | 1.11 ± 0.047 | 1.11 ± 0.04 | 1.08 ± 0.049 | 1.09 ± 0.077 | 1.03 ± 0.016 | 0.9 ± 0.055 | 0.599 ± 0.041 | 0.38 ± 0.022 | 0.282 ± 0.0065
8 | Cc1cc(C)c(/C=C2\C(=O)Nc3ccccc32)[nH]1 [Semaxanib] | 0.981 ± 0.022 | 0.962 ± 0.03 | 0.994 ± 0.026 | 0.935 ± 0.018 | 0.917 ± 0.02 | 0.8931 ± 0.0076 | 0.901 ± 0.046 | 0.923 ± 0.029 | 0.932 ± 0.06 | 0.902 ± 0.072 | 0.812 ± 0.017
9 | CCc1cc2c(cc1N1CCC(N3CCOCC3)CC1)C(C)(C)c1[nH]c3cc(C#N)ccc3c1C2=O [Alectinib] | 1.15 ± 0.037 | 1.13 ± 0.066 | 1.11 ± 0.035 | 1.129 ± 0.011 | 1.19 ± 0.058 | 1.2 ± 0.1 | 1.21 ± 0.055 | 1.22 ± 0.073 | 1.2 ± 0.055 | 1.16 ± 0.022 | 1.18 ± 0.04
10 | Cn1cnc2c(F)c(Nc3ccc(Br)cc3F)c(C(=O)NOCCO)cc21 [Binimetinib] | 1.12 ± 0.038 | 1.17 ± 0.046 | 1.11 ± 0.03 | 1.11 ± 0.028 | 1.14 ± 0.037 | 1.12 ± 0.069 | 1.06 ± 0.058 | 1.01 ± 0.071 | 0.953 ± 0.035 | 0.847 ± 0.035 | 0.642 ± 0.018
11 | C=CC(=O)Nc1cccc(Oc2nc(Nc3ccc(N4CCN(C)CC4)cc3)nc3ccsc23)c1 [Olmutinib] | 1.07 ± 0.043 | 1.14 ± 0.069 | 1.08 ± 0.029 | 1.15 ± 0.061 | 1.05 ± 0.014 | 1.09 ± 0.025 | 1.149 ± 0.0031 | 1.14 ± 0.073 | 1.07 ± 0.049 | 0.849 ± 0.032 | 0.0282 ± 0.0066
12 | CN1CCN(c2ccc3nc(-c4c(N)c5c(F)cccc5[nH]c4=O)[nH]c3c2)CC1 [Dovitinib] | 1.12 ± 0.039 | 1.17 ± 0.013 | 1.17 ± 0.033 | 1.15 ± 0.037 | 1.18 ± 0.028 | 1.15 ± 0.038 | 1.11 ± 0.037 | 1.138 ± 0.01 | 0.977 ± 0.034 | 0.656 ± 0.019 | 0.294 ± 0.038
13 | O=C(Cc1ccc(-c2ccc(OCCN3CCOCC3)cc2)cn1)NCc1ccccc1 [KX2-391] | 1.13 ± 0.039 | 1.15 ± 0.03 | 1.18 ± 0.014 | 1.182 ± 0.011 | 1.15 ± 0.025 | 1.04 ± 0.073 | 0.77 ± 0.02 | 0.696 ± 0.027 | 0.751 ± 0.024 | 0.762 ± 0.044 | 0.734 ± 0.033
14 | C[C@@H]1COCCN1c1cc(-c2ccnn2C)c2ccnc(-c3ccn[nH]3)c2n1 | 1.14 ± 0.056 | 1.19 ± 0.041 | 1.18 ± 0.085 | 1.17 ± 0.069 | 1.14 ± 0.082 | 1.06 ± 0.056 | 1.04 ± 0.048 | 0.919 ± 0.036 | 0.719 ± 0.039 | 0.461 ± 0.023 | 0.367 ± 0.01
15 | CNC(=O)c1cc(Oc2ccc(NC(=O)Nc3ccc(Cl)c(C(F)(F)F)c3)c(F)c2)ccn1 [Regorafenib] | 1.194 ± 0.0028 | 1.23 ± 0.02 | 1.22 ± 0.013 | 1.24 ± 0.049 | 1.21 ± 0.036 | 1.15 ± 0.031 | 1.21 ± 0.049 | 1.24 ± 0.036 | 1.32 ± 0.054 | 1.3 ± 0.03 | 0.772 ± 0.016
16 | Cc1ccc(NC(=O)c2ccc(CN3CCN(C)CC3)cc2)cc1Nc1nc(-c2cccnc2)cs1 [Masitinib] | 1.04 ± 0.017 | 1.07 ± 0.038 | 1.11 ± 0.029 | 1.08 ± 0.027 | 1.07 ± 0.034 | 1.1 ± 0.025 | 1.06 ± 0.043 | 1 ± 0.025 | 0.851 ± 0.014 | 0.508 ± 0.066 | 0.0554 ± 0.0057
17 | CNC(=O)c1ccc(-c2cnc3ncc(Cc4ccc5ncccc5c4)n3n2)cc1F [Capmatinib] | 1.19 ± 0.017 | 1.2 ± 0.043 | 1.19 ± 0.047 | 1.15 ± 0.056 | 1.12 ± 0.046 | 1.127 ± 0.0092 | 1.13 ± 0.029 | 1.14 ± 0.085 | 1.17 ± 0.06 | 1.13 ± 0.052 | 1.05 ± 0.045
18 | CCCS(=O)(=O)Nc1ccc(F)c(C(=O)c2c[nH]c3ncc(-c4ccc(Cl)cc4)cc23)c1F [Vemurafenib] | 1.18 ± 0.038 | 1.26 ± 0.02 | 1.18 ± 0.073 | 1.21 ± 0.054 | 1.205 ± 0.0029 | 1.18 ± 0.032 | 1.207 ± 0.0074 | 1.21 ± 0.034 | 1.21 ± 0.035 | 1.04 ± 0.033 | 0.804 ± 0.17
